Source: the supplement of paper PMC10307832

Key:
Experiment in all cases: relative viability (nuclei count vs DMSO), 5 days (fraction); higher = more cells survive
CAL-12T = system: CAL-12T
Summary of the method: (§1)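 Five library-drug doses in √10 steps were combined with a fixed anchor-drug dose, or a single drug was given alone, by pin tool to lung cancer cell lines in 1536-well plates the day after seeding. Nuclei were stained and counted after 5 days. Relative viability is the nuclei count in treated wells over that in vehicle wells, taken as the median of duplicate plates.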

NCI-H1650 = system: NCI-H1650
Summary of the method: as §1

NCI-H727 = system: NCI-H727
Summary of the method: as §1

201T = system: 201T
Summary of the method: as §1

NCI-H2087 = system: NCI-H2087
Summary of the method: as §1

HCC-827 = system: HCC-827
Summary of the method: as §1

NCI-H1395 = system: NCI-H1395
Summary of the method: as §1

LCLC-103H = system: LCLC-103H
Summary of the method: as §1

NCI-H647 = system: NCI-H647
Summary of the method: as §1

RERF-LC-KJ = system: RERF-LC-KJ
Summary of the method: as §1

LXF-289 = system: LXF-289
Summary of the method: as §1

NCI-H1437 = system: NCI-H1437
Summary of the method: as §1

NCI-H2228 = system: NCI-H2228
Summary of the method: as §1

NCI-H2405 = system: NCI-H2405
Summary of the method: as §1

BEN = system: BEN
Summary of the method: as §1

LCLC-97TM1 = system: LCLC-97TM1
Summary of the method: as §1

NCI-H322M = system: NCI-H322M
Summary of the method: as §1

SK-LU-1 = system: SK-LU-1
Summary of the method: as §1

NCI-H1793 = system: NCI-H1793
Summary of the method: as §1

NCI-H1944 = system: NCI-H1944
Summary of the method: as §1

NCI-H3122 = system: NCI-H3122
Summary of the method: as §1

## COc1cc2nccc(Oc3ccc(NC(=O)Nc4cc(C)on4)c(Cl)c3)c2cc1OC [Tivozanib] + O=C(CCCCCCC(=O)Nc1ccccc1)NO [Vorinostat] (partner 1 µM)
CAL-12T; first compound 0.005 µM
  relative viability: 0.842
CAL-12T; first compound 0.01581 µM
  relative viability: 0.744
CAL-12T; first compound 0.05 µM
  relative viability: 0.891
CAL-12T; first compound 0.1581 µM
  relative viability: 0.539
CAL-12T; first compound 0.5 µM
  relative viability: 0.473
NCI-H1650; first compound 0.005 µM
  relative viability: 0.638
NCI-H1650; first compound 0.01581 µM
  relative viability: 0.529
NCI-H1650; first compound 0.05 µM
  relative viability: 0.712
NCI-H1650; first compound 0.1581 µM
  relative viability: 0.606
NCI-H1650; first compound 0.5 µM
  relative viability: 0.545
NCI-H727; first compound 0.005 µM
  relative viability: 1.15
NCI-H727; first compound 0.01581 µM
  relative viability: 1.26
NCI-H727; first compound 0.05 µM
  relative viability: 1.3
NCI-H727; first compound 0.1581 µM
  relative viability: 0.841
NCI-H727; first compound 0.5 µM
  relative viability: 1.22
201T; first compound 0.005 µM
  relative viability: 0.983
201T; first compound 0.01581 µM
  relative viability: 0.99
201T; first compound 0.05 µM
  relative viability: 1
201T; first compound 0.1581 µM
  relative viability: 0.899
201T; first compound 0.5 µM
  relative viability: 0.974
NCI-H2087; first compound 0.005 µM
  relative viability: 0.917
NCI-H2087; first compound 0.01581 µM
  relative viability: 0.685
NCI-H2087; first compound 0.05 µM
  relative viability: 0.663
NCI-H2087; first compound 0.1581 µM
  relative viability: 0.698
NCI-H2087; first compound 0.5 µM
  relative viability: 0.428
HCC-827; first compound 0.005 µM
  relative viability: 0.69
HCC-827; first compound 0.01581 µM
  relative viability: 0.851
HCC-827; first compound 0.05 µM
  relative viability: 0.879
HCC-827; first compound 0.1581 µM
  relative viability: 0.854
HCC-827; first compound 0.5 µM
  relative viability: 0.864
NCI-H1395; first compound 0.005 µM
  relative viability: 0.476
NCI-H1395; first compound 0.01581 µM
  relative viability: 0.747
NCI-H1395; first compound 0.05 µM
  relative viability: 0.932
NCI-H1395; first compound 0.1581 µM
  relative viability: 0.58
NCI-H1395; first compound 0.5 µM
  relative viability: 0.424
LCLC-103H; first compound 0.005 µM
  relative viability: 0.668
LCLC-103H; first compound 0.01581 µM
  relative viability: 0.809
LCLC-103H; first compound 0.05 µM
  relative viability: 0.86
LCLC-103H; first compound 0.1581 µM
  relative viability: 0.824
LCLC-103H; first compound 0.5 µM
  relative viability: 0.656
NCI-H647; first compound 0.005 µM
  relative viability: 0.555
NCI-H647; first compound 0.01581 µM
  relative viability: 0.654
NCI-H647; first compound 0.05 µM
  relative viability: 0.692
NCI-H647; first compound 0.1581 µM
  relative viability: 0.631
NCI-H647; first compound 0.5 µM
  relative viability: 0.48
RERF-LC-KJ; first compound 0.005 µM
  relative viability: 0.621
RERF-LC-KJ; first compound 0.01581 µM
  relative viability: 0.616
RERF-LC-KJ; first compound 0.05 µM
  relative viability: 0.734
RERF-LC-KJ; first compound 0.1581 µM
  relative viability: 0.58
RERF-LC-KJ; first compound 0.5 µM
  relative viability: 0.593
LXF-289; first compound 0.005 µM
  relative viability: 0.647
LXF-289; first compound 0.01581 µM
  relative viability: 0.674
LXF-289; first compound 0.05 µM
  relative viability: 0.741
LXF-289; first compound 0.1581 µM
  relative viability: 0.939
LXF-289; first compound 0.5 µM
  relative viability: 0.684
NCI-H1437; first compound 0.005 µM
  relative viability: 0.769
NCI-H1437; first compound 0.01581 µM
  relative viability: 0.876
NCI-H1437; first compound 0.05 µM
  relative viability: 0.815
NCI-H1437; first compound 0.1581 µM
  relative viability: 0.746
NCI-H1437; first compound 0.5 µM
  relative viability: 0.712
NCI-H2228; first compound 0.005 µM
  relative viability: 0.606
NCI-H2228; first compound 0.01581 µM
  relative viability: 0.723
NCI-H2228; first compound 0.05 µM
  relative viability: 0.761
NCI-H2228; first compound 0.1581 µM
  relative viability: 0.599
NCI-H2228; first compound 0.5 µM
  relative viability: 0.626
NCI-H2405; first compound 0.005 µM
  relative viability: 0.376
NCI-H2405; first compound 0.01581 µM
  relative viability: 1.03
NCI-H2405; first compound 0.05 µM
  relative viability: 1.05
NCI-H2405; first compound 0.1581 µM
  relative viability: 0.854
NCI-H2405; first compound 0.5 µM
  relative viability: 0.788
BEN; first compound 0.005 µM
  relative viability: 0.577
BEN; first compound 0.01581 µM
  relative viability: 0.572
BEN; first compound 0.05 µM
  relative viability: 0.586
BEN; first compound 0.1581 µM
  relative viability: 0.527
BEN; first compound 0.5 µM
  relative viability: 0.522
LCLC-97TM1; first compound 0.005 µM
  relative viability: 0.619
LCLC-97TM1; first compound 0.01581 µM
  relative viability: 0.69
LCLC-97TM1; first compound 0.05 µM
  relative viability: 0.686
LCLC-97TM1; first compound 0.1581 µM
  relative viability: 0.732
LCLC-97TM1; first compound 0.5 µM
  relative viability: 0.323
NCI-H322M; first compound 0.005 µM
  relative viability: 0.768
NCI-H322M; first compound 0.01581 µM
  relative viability: 0.857
NCI-H322M; first compound 0.05 µM
  relative viability: 0.87
NCI-H322M; first compound 0.1581 µM
  relative viability: 0.665
NCI-H322M; first compound 0.5 µM
  relative viability: 0.744
SK-LU-1; first compound 0.005 µM
  relative viability: 0.796
SK-LU-1; first compound 0.01581 µM
  relative viability: 0.838
SK-LU-1; first compound 0.05 µM
  relative viability: 0.707
SK-LU-1; first compound 0.1581 µM
  relative viability: 0.6
SK-LU-1; first compound 0.5 µM
  relative viability: 0.729
NCI-H1793; first compound 0.005 µM
  relative viability: 0.606
NCI-H1793; first compound 0.01581 µM
  relative viability: 0.706
NCI-H1793; first compound 0.05 µM
  relative viability: 0.778
NCI-H1793; first compound 0.5 µM
  relative viability: 0.742
NCI-H1944; first compound 0.005 µM
  relative viability: 0.443
NCI-H1944; first compound 0.01581 µM
  relative viability: 0.59
NCI-H1944; first compound 0.05 µM
  relative viability: 0.534
NCI-H1944; first compound 0.1581 µM
  relative viability: 0.5
NCI-H1944; first compound 0.5 µM
  relative viability: 0.609
NCI-H3122; first compound 0.005 µM
  relative viability: 0.644
NCI-H3122; first compound 0.01581 µM
  relative viability: 1.12
NCI-H3122; first compound 0.05 µM
  relative viability: 0.97
NCI-H3122; first compound 0.1581 µM
  relative viability: 1.03
NCI-H3122; first compound 0.5 µM
  relative viability: 0.822
